Experimental data: US20240239771A1, “BACTERIAL EFFLUX PUMP INHIBITORS” (priority 2020, published 2024)
Structures can show the parent of a compound that is named as a salt.

Tests used:
[1] = tested on: Pseudomonas aeruginosa ATCC 27853; assay: Standard EPI assay: MIC of test antibiotic in absence and presence of EPI; assay type: cell-based; settings: for Enhanced Antibiotic's Activity (fold increase), Ceftazidime: ceftazidime with compound at 6.25 μg/mL, relative to MIC without EPI (2 μg/mL); for Enhanced Antibiotic's Activity (fold increase), Doxycycline: doxycycline with compound at 6.25 μg/mL, relative to MIC without EPI (32 μg/mL); for Enhanced Antibiotic's Activity (fold increase), Levofloxacin: levofloxacin with compound at 6.25 μg/mL, relative to MIC without EPI (1 μg/mL); for MIC of antibiotic in the absence of EPI: antibiotic alone, P. aeruginosa ATCC 27853
Experimental: The EPI assay for the purposes of these studies represents a MIC assay in which the MIC of the antibiotic against the bacteria is tested in the presence of an experimental efflux pump inhibitor (EPI). The highest concentration of the EPI present in the assay typically is ½ of the intrinsic MIC of the compound. If the intrinsic MIC of the EPI is greater than 100 μg/mL, the EPI assay was tested with 50 μg/mL. Using serial dilutions of the EPI, its enhancement of antibiotic activity was then evaluated. The relative EPI activity was decided by comparing the MIC of the antibiotic in the presence of the EPI compound with the intrinsic MIC of the antibiotic alone.
The impact of the EPIs on the MIC values of three test antibiotics (levofloxacin, ceftazidime and doxycycline) against P. aeruginosa ATCC 27853 were evaluated using our standard EPI assay. All three antibiotics levofloxacin, ceftazidime and doxycycline are known substrates of efflux pumps in P. aeruginosa, and are thus well-suited to be test antibiotics to assay for EPI activity.
In our standard EPI assay, the MIC of the test antibiotic is determined in the absence and presence of sub-inhibitory concentrations of the EPI. […] The MIC of levofloxacin against P. aeruginosa ATCC 27853 in the absence of EPI is 1 μg/mL. […] Similarly, the MIC of ceftazidime against P. aeruginosa ATCC 27853 in the absence of EPI is 2 μg/mL. In the presence of 6.25 μg/mL of the Example 4, the MIC of ceftazidime was reduced to 0.5 μg/mL, a 4-fold reduction. […] For all the examples in Table 1, the potentiation activities are determined at 6.25 μg/mL.

[2] = tested on: Pseudomonas aeruginosa ATCC 27853; assay: Intrinsic MIC assay (CLSI broth microdilution); assay type: cell-based; settings: ATCC27853, read-out: Intrinsic MIC of Compound
Experimental: MIC assays were conducted in accordance with Clinical and Laboratory Standards Institute (CLSI) guidelines for broth microdilution. A 96-well plate containing cation-adjusted Mueller-Hinton (CAMH broth with 2-fold serial dilution of compounds was inoculated with log-phase bacterial at 5×10^5 CFU/mL. The final volume in each well was 100 μL. Each compound was tested in duplicate. The microtiter plates were incubated in an aerobic environment for 18 hours at 37° C. Then the bacterial growth was tested by reading the plate with a VersaMax plate reader (Molecular Devices, Inc.) at 600 nm. The MIC was defined as the lowest compound concentration that inhibited 90% of bacteria growth.
The intrinsic MIC of the experimental EPIs was tested with the method described. The 2-fold serial dilution begins with 100 μg/mL of tested compound in the first column of the 96-well plates. The following Gram-negative bacterial strain was included in these assays: Pseudomonas aeruginosa ATCC 27853.

Compound | Enhanced Antibiotic's Activity (fold increase), Ceftazidime [1] [fold] | Enhanced Antibiotic's Activity (fold increase), Doxycycline [1] [fold] | Enhanced Antibiotic's Activity (fold increase), Levofloxacin [1] [fold] | MIC [2] [µg/mL] | MIC of antibiotic in the absence of EPI [1] [µg/mL]
NCC[C@@H](O)[C@@H](N)CNC(=O)c1[nH]c2ccccc2c1-c1ccc(F)cc1 [Example 1, N-((2S,3R)-2,5-diamino-3-hydroxypentyl)-3-(4-fluorophenyl)-1H-indole-2-carboxamide hydrogen chloride salt] | 1 | 16 | 8 | > 100 | –
NCCC(O)[C@@H](N)CNC(=O)c1[nH]c2ccccc2c1-c1ccccc1 (stereo partly drawn) [Example 2, N-((2S)-2,5-diamino-3-hydroxypentyl)-3-phenyl-1H-indole-2-carboxamide hydrogen chloride salt] | – | 16 | 8 | > 100 | –
NCCC(O)[C@@H](N)CNC(=O)c1[nH]c2ccccc2c1C1CCCC1 (stereo partly drawn) [Example 4, 3-cyclopentyl-N-((2S)-2,5-diamino-3-hydroxypentyl)-1H-indole-2-carboxamide hydrogen chloride salt] | 4 | 32 | 32 | > 100 | –
NCCC(O)[C@@H](N)CNC(=O)c1[nH]c2ccc(F)cc2c1C1CCCCC1 (stereo partly drawn) [Example 5, 3-cyclohexyl-N-((2S)-2,5-diamino-3-hydroxypentyl)-5-fluoro-1H-indole-2-carboxamide hydrogen chloride salt] | 16 | 32 | 32 | 50 | –
NCCC(O)[C@@H](N)CNC(=O)c1[nH]c2ccccc2c1C1CCC(F)(F)CC1 (stereo partly drawn) [Example 6, N-((2S)-2,5-diamino-3-hydroxypentyl)-3-(4,4-difluorocyclohexyl)-1H-indole-2-carboxamide hydrogen chloride salt] | 4 | 16 | 64 | 100 | –
NCCC(O)[C@@H](N)CNC(=O)c1[nH]c2ccccc2c1-c1ccccc1F (stereo partly drawn) [Example 7, N-((2S)-2,5-diamino-3-hydroxypentyl)-3-(2-fluorophenyl)-1H-indole-2-carboxamide hydrogen chloride salt] | 1 | 4 | 2 | > 100 | –
NCC(O)C[C@H](N)CNC(=O)c1[nH]c2ccc(F)cc2c1-c1ccccc1Cl (stereo partly drawn) [Example 8, 3-(2-chlorophenyl)-N-((2S)-2,5-diamino-4-hydroxypentyl)-5-fluoro-1H-indole-2-carboxamide hydrogen chloride salt] | 2 | 16 | 16 | > 100 | –
N#Cc1ccc(-c2c(C(=O)NC[C@@H](N)CC(O)CN)[nH]c3ccc(F)cc23)cc1 (stereo partly drawn) [Example 9, 3-(4-cyanophenyl)-N-((2S)-2,5-diamino-4-hydroxypentyl)-5-fluoro-1H-indole-2-carboxamide hydrogen chloride salt] | 2 | 32 | 32 | > 100 | –
NCC(O)C[C@H](N)CNC(=O)c1[nH]c2ccccc2c1-c1ccc(F)cc1 (stereo partly drawn) [Example 10, 3-(4-fluorophenyl)-N-((2S)-2,5-diamino-4-hydroxypentyl)-1H-indole-2-carboxamide hydrogen chloride salt] | 4 | 32 | 16 | 100 | –
N#Cc1ccc(-c2c(C(=O)NC[C@@H](N)CC(O)CN)[nH]c3ccccc23)cc1 (stereo partly drawn) [Example 11, 3-(4-cyanophenyl)-N-((2S)-2,5-diamino-4-hydroxypentyl)-1H-indole-2-carboxamide hydrogen chloride salt] | 1 | 16 | 16 | > 100 | –
NCC(O)C[C@H](N)CNC(=O)c1[nH]c2ccccc2c1-c1ccccc1 (stereo partly drawn) [Example 12, N-((2S)-2,5-diamino-4-hydroxypentyl)-3-phenyl-1H-indole-2-carboxamide hydrogen chloride salt] | 2 | 32 | 16 | > 100 | –
NCC(O)C[C@H](N)CNC(=O)c1[nH]c2ccc(F)cc2c1-c1ccccc1 (stereo partly drawn) [Example 13, N-((2S)-2,5-diamino-4-hydroxypentyl)-5-fluoro-3-phenyl-1H-indole-2-carboxamide hydrogen chloride salt] | 2 | 32 | 32 | > 100 | –
N#Cc1ccc(-c2c(C(=O)NC[C@@H](N)CC(O)CN)[nH]c3c(F)cccc23)cc1 (stereo partly drawn) [Example 14, 3-(4-cyanophenyl)-N-((2S)-2,5-diamino-4-hydroxypentyl)-7-fluoro-1H-indole-2-carboxamide hydrogen chloride salt] | 1 | 16 | 32 | > 100 | –
NCC(O)C[C@H](N)CNC(=O)c1[nH]c2ccccc2c1C1CCCCC1 (stereo partly drawn) [Example 15, 3-cyclohexyl-N-((2S)-2,5-diamino-4-hydroxypentyl)-1H-indole-2-carboxamide hydrogen chloride salt] | 4 | 32 | 32 | 50 | –
NCC(CO)C[C@@H](N)CNC(=O)c1[nH]c2ccccc2c1-c1ccc(F)cc1 (stereo partly drawn) [Example 16, N-((2R)-2,5-diamino-4-(hydroxymethyl)pentyl)-3-(4-fluorophenyl)-1H-indole-2-carboxamide hydrogen chloride salt] | 2 | 32 | 16 | > 100 | –
NCCOC[C@H](N)CNC(=O)c1[nH]c2ccccc2c1-c1ccc(F)cc1 [Example 19, (R)—N-(2-amino-3-(2-aminoethoxy)propyl)-3-(4-fluorophenyl)-1H-indole-2-carboxamide hydrogen chloride salt] | 2 | 16 | 16 | > 100 | –
N#Cc1ccc(-c2c(C(=O)NC[C@@H](N)COCCN)[nH]c3ccc(F)cc23)cc1 [Example 20, (R)—N-(2-amino-3-(2-aminoethoxy)propyl)-3-(4-cyanophenyl)-5-fluoro-1H-indole-2-carboxamide hydrogen chloride salt] | 2 | 16 | 16 | > 100 | –
CC(C)(O/N=C(\C(=O)N[C@@H]1C(=O)N2C(C(=O)[O-])=C(C[n+]3ccccc3)CS[C@H]12)c1csc(N)n1)C(=O)O [ceftazidime, Ceftazidime, reference compound] | – | – | – | – | 2
C[C@H]1c2cccc(O)c2C(=O)C2=C(O)[C@]3(O)C(=O)C(C(N)=O)=C(O)[C@@H](N(C)C)[C@@H]3[C@@H](O)[C@@H]21 [doxycycline, Doxycycline, reference compound] | – | – | – | – | 32
C[C@H]1COc2c(N3CCN(C)CC3)c(F)cc3c(=O)c(C(=O)O)cn1c23 [levofloxacin, Levofloxacin, reference compound] | – | – | – | – | 1
